From ChEMBL document CHEMBL4385594, “4(3H)-Quinazolinone derivatives: Promising antibacterial drug leads” (Eur J Med Chem, 2019) come the findings set out here.

Molecules are shown by their SMILES. In brackets after ≈: the same amount, converted by molar mass.

This assay deals with Helicobacter pylori. As to the kind of experiment: Antibacterial activity against Helicobacter pylori assessed as reduction in bacterial cell growth by agar dilution method. In kind it is functional. (Agar dilution tests growth on a series of plates holding different concentrations.)

For the molecule `Nc1nc(-n2c(-c3ccc([N+](=O)[O-])cc3)nc3ccccc3c2=O)nnc1-c1cccc(Cl)c1Cl`, the MIC stood at 25 µg/mL (≈ 49.4 µM).

For orientation: MIC means the lowest concentration found to suppress growth.
